ChEMBL document CHEMBL5653615 (J Biol Chem, 2013)

Tests used:
[1] = biological target: NT-3 growth factor receptor (Homo sapiens) (UniProt Q16288); assay: Inhibition of human TRKC at 500 nM by HotSpot assay relative to control
[2] = biological target: T1, Serine/threonine-protein kinase VRK1 (Homo sapiens) (UniProt Q99986); assay: Inhibition of human VRK1 at 500 nM by HotSpot assay relative to control
T1 sequence (whole entry): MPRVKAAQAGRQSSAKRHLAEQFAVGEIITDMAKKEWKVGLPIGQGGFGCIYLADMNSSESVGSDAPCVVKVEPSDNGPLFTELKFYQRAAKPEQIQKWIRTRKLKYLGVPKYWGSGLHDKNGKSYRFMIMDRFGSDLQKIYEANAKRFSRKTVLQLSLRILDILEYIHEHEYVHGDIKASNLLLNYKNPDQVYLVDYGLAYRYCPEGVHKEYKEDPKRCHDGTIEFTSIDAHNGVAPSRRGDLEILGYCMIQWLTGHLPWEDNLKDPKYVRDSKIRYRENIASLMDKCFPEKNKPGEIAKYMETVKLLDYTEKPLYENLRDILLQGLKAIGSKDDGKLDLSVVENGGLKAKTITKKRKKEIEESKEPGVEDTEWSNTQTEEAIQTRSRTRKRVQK

[3] = biological target: T2, Aurora kinase A (Homo sapiens) (UniProt O14965); assay: Inhibition of human Aurora A at 500 nM by HotSpot assay relative to control
T2 sequence (whole entry): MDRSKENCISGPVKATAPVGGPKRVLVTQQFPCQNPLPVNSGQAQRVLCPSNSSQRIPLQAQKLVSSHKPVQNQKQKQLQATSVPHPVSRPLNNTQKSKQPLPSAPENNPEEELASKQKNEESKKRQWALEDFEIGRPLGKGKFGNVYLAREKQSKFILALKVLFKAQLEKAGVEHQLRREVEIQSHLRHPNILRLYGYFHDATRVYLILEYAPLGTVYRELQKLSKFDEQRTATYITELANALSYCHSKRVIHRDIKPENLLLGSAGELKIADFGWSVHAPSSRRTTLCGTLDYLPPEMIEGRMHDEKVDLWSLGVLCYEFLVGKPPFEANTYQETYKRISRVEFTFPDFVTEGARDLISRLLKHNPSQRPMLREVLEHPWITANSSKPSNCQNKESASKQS

[4] = biological target: T3, cGMP-dependent protein kinase 1 (Homo sapiens) (UniProt Q13976); assay: Inhibition of human PKG1a at 500 nM by HotSpot assay relative to control
T3 sequence (whole entry): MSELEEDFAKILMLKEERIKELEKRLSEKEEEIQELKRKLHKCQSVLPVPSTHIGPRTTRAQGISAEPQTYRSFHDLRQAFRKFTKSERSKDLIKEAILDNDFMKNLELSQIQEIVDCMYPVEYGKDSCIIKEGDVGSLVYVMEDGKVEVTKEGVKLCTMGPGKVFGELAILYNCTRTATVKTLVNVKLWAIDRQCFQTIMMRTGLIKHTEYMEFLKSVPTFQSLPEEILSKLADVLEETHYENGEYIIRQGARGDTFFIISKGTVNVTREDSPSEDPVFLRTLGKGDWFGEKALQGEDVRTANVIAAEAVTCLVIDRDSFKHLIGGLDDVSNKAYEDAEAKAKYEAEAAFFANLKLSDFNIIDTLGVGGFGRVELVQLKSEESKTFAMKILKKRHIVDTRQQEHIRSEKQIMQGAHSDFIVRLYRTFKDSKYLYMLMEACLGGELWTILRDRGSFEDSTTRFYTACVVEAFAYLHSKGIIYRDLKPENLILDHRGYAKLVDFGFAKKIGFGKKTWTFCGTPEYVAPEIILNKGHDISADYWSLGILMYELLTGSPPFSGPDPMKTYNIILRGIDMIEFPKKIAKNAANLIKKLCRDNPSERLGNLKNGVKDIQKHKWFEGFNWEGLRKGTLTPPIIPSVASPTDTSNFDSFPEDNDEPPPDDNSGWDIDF

[5] = biological target: Insulin-like growth factor 1 receptor (Homo sapiens, UniProt P08069); assay: Inhibition of human IGF1R at 500 nM by HotSpot assay relative to control
Chain of Insulin-like growth factor 1 receptor (P08069 31-736 limits assumed): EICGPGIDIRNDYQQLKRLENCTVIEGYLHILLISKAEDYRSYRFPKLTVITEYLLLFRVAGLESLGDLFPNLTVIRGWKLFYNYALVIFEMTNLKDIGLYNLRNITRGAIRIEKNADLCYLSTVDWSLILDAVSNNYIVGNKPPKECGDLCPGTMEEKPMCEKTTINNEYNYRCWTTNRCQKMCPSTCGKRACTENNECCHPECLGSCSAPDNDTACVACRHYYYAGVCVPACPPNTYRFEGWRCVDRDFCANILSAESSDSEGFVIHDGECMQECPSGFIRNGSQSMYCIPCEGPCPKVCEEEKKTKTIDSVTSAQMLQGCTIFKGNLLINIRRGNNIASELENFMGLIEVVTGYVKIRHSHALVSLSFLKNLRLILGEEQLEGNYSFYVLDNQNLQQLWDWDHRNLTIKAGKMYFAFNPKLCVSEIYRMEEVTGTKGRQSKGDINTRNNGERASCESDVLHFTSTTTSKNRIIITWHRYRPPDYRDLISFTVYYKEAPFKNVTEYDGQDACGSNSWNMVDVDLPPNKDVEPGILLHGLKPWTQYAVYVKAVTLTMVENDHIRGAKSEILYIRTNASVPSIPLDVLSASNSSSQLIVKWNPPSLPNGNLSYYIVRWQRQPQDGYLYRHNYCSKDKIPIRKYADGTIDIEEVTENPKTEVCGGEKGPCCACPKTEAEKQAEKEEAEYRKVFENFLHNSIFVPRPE
Chain of Insulin-like growth factor 1 receptor (P08069 741-1367 limits assumed): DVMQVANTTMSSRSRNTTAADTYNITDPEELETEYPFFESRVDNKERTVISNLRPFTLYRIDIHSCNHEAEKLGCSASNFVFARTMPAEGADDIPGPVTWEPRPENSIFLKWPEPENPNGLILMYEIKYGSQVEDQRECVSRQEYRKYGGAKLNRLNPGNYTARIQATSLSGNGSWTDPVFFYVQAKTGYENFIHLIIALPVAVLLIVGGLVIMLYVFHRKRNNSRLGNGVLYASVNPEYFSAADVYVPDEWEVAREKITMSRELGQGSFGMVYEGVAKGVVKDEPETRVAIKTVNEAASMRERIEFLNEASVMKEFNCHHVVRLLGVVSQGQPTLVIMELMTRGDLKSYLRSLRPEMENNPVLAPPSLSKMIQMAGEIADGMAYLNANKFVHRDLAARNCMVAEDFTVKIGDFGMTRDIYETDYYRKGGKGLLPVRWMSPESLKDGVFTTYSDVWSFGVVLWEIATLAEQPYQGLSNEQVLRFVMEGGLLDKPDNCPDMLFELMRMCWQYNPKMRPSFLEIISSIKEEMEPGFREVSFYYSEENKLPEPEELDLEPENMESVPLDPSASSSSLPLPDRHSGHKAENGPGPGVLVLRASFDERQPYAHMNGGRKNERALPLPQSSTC

[6] = biological target: T4, Serine/threonine-protein kinase BRSK1 (Homo sapiens) (UniProt Q8TDC3); assay: Inhibition of human BRSK1 at 500 nM by HotSpot assay relative to control
T4 sequence (whole entry): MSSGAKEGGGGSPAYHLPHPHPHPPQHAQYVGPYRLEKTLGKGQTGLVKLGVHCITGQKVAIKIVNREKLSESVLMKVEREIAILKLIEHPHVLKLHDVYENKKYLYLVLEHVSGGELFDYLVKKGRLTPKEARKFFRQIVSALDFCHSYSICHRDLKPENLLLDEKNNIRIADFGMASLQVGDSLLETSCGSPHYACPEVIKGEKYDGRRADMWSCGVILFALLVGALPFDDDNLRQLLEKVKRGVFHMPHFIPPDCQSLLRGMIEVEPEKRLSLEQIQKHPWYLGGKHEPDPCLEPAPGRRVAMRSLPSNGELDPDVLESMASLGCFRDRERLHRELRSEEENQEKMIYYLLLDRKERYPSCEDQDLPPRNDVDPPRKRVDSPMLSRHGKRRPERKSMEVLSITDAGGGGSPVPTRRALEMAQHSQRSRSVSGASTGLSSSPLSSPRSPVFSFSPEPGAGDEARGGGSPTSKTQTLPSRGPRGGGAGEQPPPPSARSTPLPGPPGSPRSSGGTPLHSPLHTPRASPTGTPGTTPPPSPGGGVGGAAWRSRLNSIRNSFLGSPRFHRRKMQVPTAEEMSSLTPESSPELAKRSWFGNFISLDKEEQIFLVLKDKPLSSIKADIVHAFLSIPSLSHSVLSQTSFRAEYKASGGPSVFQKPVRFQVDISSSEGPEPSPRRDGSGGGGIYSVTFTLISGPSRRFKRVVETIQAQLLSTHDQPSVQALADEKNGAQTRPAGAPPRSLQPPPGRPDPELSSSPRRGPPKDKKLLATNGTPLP

Chain of NT-3 growth factor receptor (Homo sapiens) (Q16288 32-839 limits assumed): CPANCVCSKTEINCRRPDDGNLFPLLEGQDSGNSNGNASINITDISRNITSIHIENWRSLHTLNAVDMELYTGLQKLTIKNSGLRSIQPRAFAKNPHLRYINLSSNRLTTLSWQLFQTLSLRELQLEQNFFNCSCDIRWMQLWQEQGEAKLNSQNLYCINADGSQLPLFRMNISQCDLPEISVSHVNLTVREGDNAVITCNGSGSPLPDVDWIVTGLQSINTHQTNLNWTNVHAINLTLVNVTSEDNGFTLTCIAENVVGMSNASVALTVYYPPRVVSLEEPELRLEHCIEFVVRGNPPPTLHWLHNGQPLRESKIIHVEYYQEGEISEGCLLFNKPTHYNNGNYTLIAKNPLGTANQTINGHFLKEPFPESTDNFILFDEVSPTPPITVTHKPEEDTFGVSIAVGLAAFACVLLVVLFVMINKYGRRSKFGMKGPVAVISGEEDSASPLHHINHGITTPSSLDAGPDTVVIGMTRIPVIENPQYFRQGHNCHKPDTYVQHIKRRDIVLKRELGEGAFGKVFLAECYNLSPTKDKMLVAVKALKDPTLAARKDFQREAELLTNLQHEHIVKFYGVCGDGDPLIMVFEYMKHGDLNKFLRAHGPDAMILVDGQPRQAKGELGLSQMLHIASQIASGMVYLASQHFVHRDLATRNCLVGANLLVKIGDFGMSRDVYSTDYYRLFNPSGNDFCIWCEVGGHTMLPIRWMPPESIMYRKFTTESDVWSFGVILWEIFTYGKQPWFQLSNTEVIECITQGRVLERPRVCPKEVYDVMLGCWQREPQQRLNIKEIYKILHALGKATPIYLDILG

SMILES	inhibition [1] [%]	inhibition [2] [%]	inhibition [3] [%]	inhibition [4] [%]	inhibition [5] [%]	inhibition [6] [%]
Nc1n[nH]c2nnc(-c3c(-c4ccccc4)nn4ccccc34)cc12	23.4	7.83	-0.77	6.39	-1.88	1.41
Oc1n[nH]c2nnc(-c3c(-c4ccccc4)nn4ccccc34)cc12	2.25	0.57	0.5	-5.37	-4.89	-2.29
